Measurements reported in ChEMBL document CHEMBL1201862, “PubChem BioAssay data set” (2004).
Counter-ions that a name gives are not always drawn. Calls of active or inactive are those of the source.

How the values were obtained:
Bcl-2-related protein A1 [1] = biological target: T1, Bcl-2-related protein A1 (Mus musculus, UniProt Q07440); assay: displacement of Bid BH3 peptide from Bfl-1 – biochemical, fluorescence polarization, FITC-Bid, mouse, primary screen (AID 432)
T1 sequence (Q07440 whole entry): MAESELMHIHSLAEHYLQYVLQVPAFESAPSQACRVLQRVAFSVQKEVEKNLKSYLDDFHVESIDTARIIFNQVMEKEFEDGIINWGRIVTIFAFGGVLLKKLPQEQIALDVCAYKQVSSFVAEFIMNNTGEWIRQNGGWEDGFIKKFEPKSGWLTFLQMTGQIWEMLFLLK

Bcl-2-related protein A1 [2] = biological target: T1, Bcl-2-related protein A1; assay: small-molecule antagonists of Bfl-1/BH3 interaction – biochemical, TR-FRET, mouse Bfl-1, confirmation (AID 621);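 also: TR-FRET binding of GST-Bfl-1 to FITC-labelled Bid peptide via terbium antibody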
[3] = biological target: T2, Sentrin-specific protease 1 (Homo sapiens, UniProt Q9P0U3); assay: SENP1 catalytic domain blockers, concentration series – biochemical, kinetic FRET, dose response (AID 651697); type: functional; conditions: read-out: IC50_Mean
T2 sequence (Q9P0U3 whole entry): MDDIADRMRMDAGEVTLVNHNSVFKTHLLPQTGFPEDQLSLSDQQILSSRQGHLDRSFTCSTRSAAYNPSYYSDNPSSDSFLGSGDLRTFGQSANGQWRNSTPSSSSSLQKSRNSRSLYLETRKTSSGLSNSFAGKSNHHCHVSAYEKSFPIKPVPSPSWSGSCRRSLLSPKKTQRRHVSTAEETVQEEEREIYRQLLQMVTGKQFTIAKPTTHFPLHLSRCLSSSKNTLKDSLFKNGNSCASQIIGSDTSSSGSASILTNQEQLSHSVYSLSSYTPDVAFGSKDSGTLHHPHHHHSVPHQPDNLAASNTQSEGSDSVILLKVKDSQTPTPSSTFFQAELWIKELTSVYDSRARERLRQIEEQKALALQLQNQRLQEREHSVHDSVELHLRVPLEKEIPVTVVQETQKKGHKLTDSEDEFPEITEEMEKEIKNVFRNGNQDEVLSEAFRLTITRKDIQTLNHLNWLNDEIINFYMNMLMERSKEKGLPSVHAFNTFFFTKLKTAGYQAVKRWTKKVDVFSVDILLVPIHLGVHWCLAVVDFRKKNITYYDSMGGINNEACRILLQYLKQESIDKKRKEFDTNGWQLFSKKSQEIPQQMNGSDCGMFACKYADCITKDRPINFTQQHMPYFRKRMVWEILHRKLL

[4] = biological target: T2, Sentrin-specific protease 1; assay: Dose response confirmation of small molecule inhibitors of the catalytic domain of the SUMO protease, SENP1 in a FRET assay.; type: functional; conditions: read-out: IC50_Mean
[5] = biological target: T3, Heat shock factor protein 1 (Mus musculus, UniProt P38532); assay: decrease of HSF1-responsive luciferase luminescence – cell-based, NIH3T3, dose retest, confirmation (AID 2382); type: functional;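 also: NIH3T3 fibroblasts with HSF1-driven luciferase reporter stressed by proteasome inhibitor MG132; luminescence from HSF1-driven luciferase expression after 8 hours of MG132 stress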
T3 sequence (P38532 whole entry): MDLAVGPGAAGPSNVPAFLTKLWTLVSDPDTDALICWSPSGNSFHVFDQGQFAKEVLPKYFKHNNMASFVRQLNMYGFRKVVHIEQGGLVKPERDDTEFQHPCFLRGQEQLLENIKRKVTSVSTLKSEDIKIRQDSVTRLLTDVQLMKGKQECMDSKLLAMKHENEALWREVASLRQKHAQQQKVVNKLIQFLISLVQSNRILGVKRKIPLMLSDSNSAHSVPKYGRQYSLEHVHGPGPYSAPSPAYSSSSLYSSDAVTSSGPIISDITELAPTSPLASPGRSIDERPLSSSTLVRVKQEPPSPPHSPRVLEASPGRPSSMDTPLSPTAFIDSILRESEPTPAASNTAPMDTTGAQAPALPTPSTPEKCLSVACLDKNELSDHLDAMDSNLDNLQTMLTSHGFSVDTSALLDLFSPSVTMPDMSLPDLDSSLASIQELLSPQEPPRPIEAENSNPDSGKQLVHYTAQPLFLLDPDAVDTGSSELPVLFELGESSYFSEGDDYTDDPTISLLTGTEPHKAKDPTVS

[6] = biological target: Solute carrier family 12 member 2/member 5 (Homo sapiens, UniProt P55011+Q9H2X9); assay: KCC2 and NKCC1 inhibition by rubidium flux, cell-based, NKCC1 counter-screen (AID 1734); type: functional, HEK293
Heat shock protein HSP90 = Heat shock protein HSP90 (Homo sapiens, UniProt P07900+P08238); assay: Hsp90 blockade concentration-response – dose response (AID 712); type: functional
[7] = biological target: T4, RNA-binding protein pos-1 (Caenorhabditis elegans, UniProt G5EF15); assay: disruptors of C. elegans POS-1 RNA interaction – biochemical, fluorescence polarization, dose response (AID 1964);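 also: purified POS-1 fused to maltose binding protein made in E. coli; potency of compounds blocking POS-1 binding to fluorescent RNA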
T4 sequence (G5EF15 whole entry): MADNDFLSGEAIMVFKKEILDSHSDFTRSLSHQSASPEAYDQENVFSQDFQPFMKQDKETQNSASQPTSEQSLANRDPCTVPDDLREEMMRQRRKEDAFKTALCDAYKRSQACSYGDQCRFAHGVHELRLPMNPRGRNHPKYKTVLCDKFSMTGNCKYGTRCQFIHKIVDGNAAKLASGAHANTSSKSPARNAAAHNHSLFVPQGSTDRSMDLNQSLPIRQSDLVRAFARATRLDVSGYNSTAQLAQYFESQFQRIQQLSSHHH

14-3-3 protein gamma = biological target: T5, 14-3-3 protein gamma (Homo sapiens, UniProt P61981); assay: modulators of 14-3-3 gamma client binding – dose response (AID 711); type: functional
T5 sequence (P61981 whole entry): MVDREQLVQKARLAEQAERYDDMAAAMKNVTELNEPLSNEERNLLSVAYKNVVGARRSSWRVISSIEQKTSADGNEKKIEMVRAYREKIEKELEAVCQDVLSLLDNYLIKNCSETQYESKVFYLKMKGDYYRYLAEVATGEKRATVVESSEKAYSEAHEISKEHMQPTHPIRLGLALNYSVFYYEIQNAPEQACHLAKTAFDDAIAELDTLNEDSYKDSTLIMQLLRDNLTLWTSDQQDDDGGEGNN

Troponin, cardiac muscle = Troponin, cardiac muscle (Homo sapiens, UniProt P19429+P45379+P63316); assay: Fluorescence-based biochemical high throughput dose response assay for activators of the calcium sensitivity of cardiac Regulated Thin Filaments (RTF). [Related pubchem assays (depositor defined):AID493008, AID493018, AID504382, AID504383]; type: protein-complex assay
[8] = biological target: T6, Endoribonuclease toxin MazF (Escherichia coli K-12, UniProt P0AE70); assay: activation of MazEF endoribonuclease cleavage – biochemical, fluorescence, single-stranded RNA substrate, uHTS hits, dose response (AID 588481); type: functional
T6 sequence (P0AE70 whole entry): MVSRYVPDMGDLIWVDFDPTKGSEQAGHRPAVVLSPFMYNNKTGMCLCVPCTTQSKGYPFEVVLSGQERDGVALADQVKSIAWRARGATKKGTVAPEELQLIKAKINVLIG

[9] = biological target: UDP-galactopyranose mutase (Mycobacterium tuberculosis, UniProt P9WIQ1); assay: Inhibitors of Mycobacterium tuberculosis UDP-galactopyranose mutase (UGM) enzyme Measured in Biochemical System Using Plate Reader - 2105-02_Inhibitor_Dose_CherryPick_Activity. [Related pubchem assays (depositor defined):AID504439]
Chain of UDP-galactopyranose mutase (P9WIQ1 whole entry): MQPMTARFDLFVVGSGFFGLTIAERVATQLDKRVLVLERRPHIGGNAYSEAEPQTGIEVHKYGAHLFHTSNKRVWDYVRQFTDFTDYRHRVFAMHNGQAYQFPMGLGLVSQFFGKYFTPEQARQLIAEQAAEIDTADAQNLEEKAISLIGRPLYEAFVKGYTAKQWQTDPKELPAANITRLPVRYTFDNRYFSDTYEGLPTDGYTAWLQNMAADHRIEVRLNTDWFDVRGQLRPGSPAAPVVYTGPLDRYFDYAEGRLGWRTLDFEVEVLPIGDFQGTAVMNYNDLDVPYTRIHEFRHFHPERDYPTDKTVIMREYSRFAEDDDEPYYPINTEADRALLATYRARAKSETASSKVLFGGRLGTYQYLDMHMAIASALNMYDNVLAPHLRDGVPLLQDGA

[10] = biological target: T6, Endoribonuclease toxin MazF; assay: substrate-only fluorescence increase artefacts – biochemical, single-stranded RNase substrate, counter-screen for MazEF activator project, dose response (AID 588502); type: functional
[11] = biological target: T7, Corticotropin-releasing factor receptor 2/Corticotropin-releasing factor-binding protein (Homo sapiens, UniProt P24387+Q13324); assay: activators of CRF receptor 2 with binding protein – uHTS hits, confirmation (AID 602473); type: functional; conditions: read-out: EC50_Mean
T7 sequence (Q13324 whole entry): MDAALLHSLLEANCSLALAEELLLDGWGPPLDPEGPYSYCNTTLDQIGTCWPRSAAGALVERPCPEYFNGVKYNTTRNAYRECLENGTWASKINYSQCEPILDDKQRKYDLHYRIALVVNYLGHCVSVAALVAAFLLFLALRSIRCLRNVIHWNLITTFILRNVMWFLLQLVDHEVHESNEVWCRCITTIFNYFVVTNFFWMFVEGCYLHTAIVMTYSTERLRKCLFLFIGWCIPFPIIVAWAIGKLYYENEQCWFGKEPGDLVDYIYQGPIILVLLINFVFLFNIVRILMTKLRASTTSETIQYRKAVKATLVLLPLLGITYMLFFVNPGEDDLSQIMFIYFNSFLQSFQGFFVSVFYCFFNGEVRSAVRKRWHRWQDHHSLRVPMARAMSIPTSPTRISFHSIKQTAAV
T7 sequence (P24387 whole entry): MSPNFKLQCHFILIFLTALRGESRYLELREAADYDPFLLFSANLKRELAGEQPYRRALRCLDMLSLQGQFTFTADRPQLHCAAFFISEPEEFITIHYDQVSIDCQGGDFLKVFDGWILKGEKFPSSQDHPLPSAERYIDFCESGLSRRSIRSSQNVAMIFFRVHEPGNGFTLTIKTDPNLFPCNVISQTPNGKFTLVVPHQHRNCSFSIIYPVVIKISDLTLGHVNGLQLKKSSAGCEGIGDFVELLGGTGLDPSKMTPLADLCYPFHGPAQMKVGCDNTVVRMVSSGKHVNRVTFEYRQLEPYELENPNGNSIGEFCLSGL

HEK293 = assay: Fluorescence-based counterscreen for potentiators or agonists of NPY-Y2: cell-based high-throughput dose response assay to identify inhibitors of cyclic nucleotide gated ion channel (CNGC) activity. In this assay, the parental HEK293 cell line transfected with a cyclic-nucleotide gated ion channel (CNGC)-based cAMP sensor is used to measure inhibition of isoproterenol-induced CNGC activity by test compound.; type: functional; conditions: Homo sapiens;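 also: stimulus is 1 µM isoproterenol at EC100 plus PDE inhibitor Ro 20-1724 at 25 µM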

Nc1ccc(C2CCCc3nonc32)c2nonc12 (stereo not given)
IC50 (Bcl-2-related protein A1 [1]): > 100 µM (not active) | IC50 (Bcl-2-related protein A1 [2]): > 100 µM (not active) | IC50 [3]: 42 µM (inactive) | IC50 [4]: 39.4 µM (inactive)

Cc1csc(NC(=O)CSc2ccc(-c3ccccc3)nn2)n1
EC50 [5]: > 195 µM (not active) | IC50 [6]: 0.56 µM (active)

CN(C)c1ccc(/N=C/c2nc(-c3ccccc3)oc2O)cc1
IC50 (Heat shock protein HSP90): 27.302 µM | EC50 [7]: 5.7 µM (active) | IC50 (14-3-3 protein gamma): 9.68 µM (active) | EC50 (Troponin, cardiac muscle): 3.71 µM (active) | EC50 [8]: 46.7 µM (inactive) | AC50 [9]: 68.2 µM (active) | EC50 [10]: 56.6 µM (inactive) | EC50 [11]: 7.96 µM (active)

COCCc1ccc(OCC(O)CNC(C)C)cc1 (stereo not given) [METOPROLOL TARTRATE]
EC50 (HEK293): 2.99 µM (active)
